Experiment [1] concerns the target T1, Tyrosine-protein phosphatase non-receptor type 7 (Homo sapiens, UniProt P35236).
T1 sequence (P35236 whole entry): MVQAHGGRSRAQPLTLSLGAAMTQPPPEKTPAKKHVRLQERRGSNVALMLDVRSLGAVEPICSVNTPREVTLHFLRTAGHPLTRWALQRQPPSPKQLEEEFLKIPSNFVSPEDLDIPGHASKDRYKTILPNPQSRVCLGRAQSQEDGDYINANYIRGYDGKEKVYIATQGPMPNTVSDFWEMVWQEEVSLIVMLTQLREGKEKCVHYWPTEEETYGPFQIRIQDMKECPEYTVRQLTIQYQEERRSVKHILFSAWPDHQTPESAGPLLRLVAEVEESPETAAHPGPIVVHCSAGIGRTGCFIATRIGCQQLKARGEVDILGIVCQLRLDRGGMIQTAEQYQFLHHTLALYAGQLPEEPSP
The format is functional.

In experiment [2] the target is T2, Tyrosine-protein phosphatase non-receptor type 22 (Homo sapiens, UniProt Q9Y2R2).
T2 sequence (Q9Y2R2 whole entry): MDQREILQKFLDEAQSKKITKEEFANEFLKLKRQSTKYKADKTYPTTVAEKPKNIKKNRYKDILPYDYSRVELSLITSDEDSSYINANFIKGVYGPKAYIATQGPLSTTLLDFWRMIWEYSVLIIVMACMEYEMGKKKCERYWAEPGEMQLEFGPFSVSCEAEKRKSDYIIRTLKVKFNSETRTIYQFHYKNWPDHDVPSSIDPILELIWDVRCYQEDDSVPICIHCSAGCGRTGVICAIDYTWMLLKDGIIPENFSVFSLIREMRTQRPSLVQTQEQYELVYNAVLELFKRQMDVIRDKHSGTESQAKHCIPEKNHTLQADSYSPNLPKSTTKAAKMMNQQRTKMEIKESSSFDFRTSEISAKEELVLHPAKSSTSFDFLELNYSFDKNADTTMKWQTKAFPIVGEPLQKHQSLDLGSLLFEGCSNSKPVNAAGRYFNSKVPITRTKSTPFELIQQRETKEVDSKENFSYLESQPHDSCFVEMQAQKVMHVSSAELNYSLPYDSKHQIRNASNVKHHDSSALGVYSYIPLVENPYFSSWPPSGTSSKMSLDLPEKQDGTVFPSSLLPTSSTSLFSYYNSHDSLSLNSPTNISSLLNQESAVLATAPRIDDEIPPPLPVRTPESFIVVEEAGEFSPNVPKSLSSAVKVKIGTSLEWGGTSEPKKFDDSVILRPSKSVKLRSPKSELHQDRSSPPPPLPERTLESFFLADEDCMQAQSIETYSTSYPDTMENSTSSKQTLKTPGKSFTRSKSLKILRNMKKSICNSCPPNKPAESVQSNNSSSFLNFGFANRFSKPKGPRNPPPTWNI
The format is functional.

Experiment [3] addresses T2, Tyrosine-protein phosphatase non-receptor type 22. The format is functional. The source holds these as a separate data set.
The target of experiment [4] is T3, Corticotropin-releasing factor receptor 2/Corticotropin-releasing factor-binding protein (Homo sapiens, UniProt P24387+Q13324).
T3 sequence (Q13324 whole entry): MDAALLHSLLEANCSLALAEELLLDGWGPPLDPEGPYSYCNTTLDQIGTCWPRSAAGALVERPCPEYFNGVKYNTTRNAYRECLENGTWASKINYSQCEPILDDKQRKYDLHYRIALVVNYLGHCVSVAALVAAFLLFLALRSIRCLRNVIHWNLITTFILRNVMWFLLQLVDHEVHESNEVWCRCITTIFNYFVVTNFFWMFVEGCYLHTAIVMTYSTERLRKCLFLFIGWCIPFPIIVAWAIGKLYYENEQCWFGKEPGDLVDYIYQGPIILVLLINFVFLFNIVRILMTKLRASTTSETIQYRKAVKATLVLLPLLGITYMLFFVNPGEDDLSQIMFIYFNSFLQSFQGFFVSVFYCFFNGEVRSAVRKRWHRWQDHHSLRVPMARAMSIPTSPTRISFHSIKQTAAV
T3 sequence (P24387 whole entry): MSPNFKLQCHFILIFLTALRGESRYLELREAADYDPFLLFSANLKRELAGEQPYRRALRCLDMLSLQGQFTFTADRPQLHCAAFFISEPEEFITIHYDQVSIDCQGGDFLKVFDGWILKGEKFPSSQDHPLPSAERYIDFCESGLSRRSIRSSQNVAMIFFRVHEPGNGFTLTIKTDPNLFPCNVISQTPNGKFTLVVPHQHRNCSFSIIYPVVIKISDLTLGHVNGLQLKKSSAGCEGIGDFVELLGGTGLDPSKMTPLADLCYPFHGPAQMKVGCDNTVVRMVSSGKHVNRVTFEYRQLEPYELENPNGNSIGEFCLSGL
Nature of the experiment: activators of CRF receptor 2 with binding protein – uHTS hits, confirmation (AID 602473). The format is functional. The settings on record: read-out: EC50_Mean.

Experiment [5] addresses Beta-lactamase (Pseudomonas aeruginosa, UniProt Q79MP6).
Experiment [6] concerns the target Beta-lactamase (Salmonella choleraesuis (strain SC-B67), UniProt Q5J463).
The target of experiment [7] is ORF 73 (Human herpesvirus 8, UniProt O40947). Nature of the experiment: KSHV LANA DNA-binding disruption – biochemical, fluorescence polarization, cherry-picked samples, dose response (AID 504725).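 Also: fluorescence polarization of a labeled DNA duplex reporting LANA DNA binding; potency is for inhibitors that block LANA binding to the DNA.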 On the set-up: species or system Human gammaherpesvirus 8. On the technique in general: In fluorescence polarisation assays a small probe gives low polarisation when free and higher when bound to something large.
Sequence of ORF 73 (O40947 whole entry): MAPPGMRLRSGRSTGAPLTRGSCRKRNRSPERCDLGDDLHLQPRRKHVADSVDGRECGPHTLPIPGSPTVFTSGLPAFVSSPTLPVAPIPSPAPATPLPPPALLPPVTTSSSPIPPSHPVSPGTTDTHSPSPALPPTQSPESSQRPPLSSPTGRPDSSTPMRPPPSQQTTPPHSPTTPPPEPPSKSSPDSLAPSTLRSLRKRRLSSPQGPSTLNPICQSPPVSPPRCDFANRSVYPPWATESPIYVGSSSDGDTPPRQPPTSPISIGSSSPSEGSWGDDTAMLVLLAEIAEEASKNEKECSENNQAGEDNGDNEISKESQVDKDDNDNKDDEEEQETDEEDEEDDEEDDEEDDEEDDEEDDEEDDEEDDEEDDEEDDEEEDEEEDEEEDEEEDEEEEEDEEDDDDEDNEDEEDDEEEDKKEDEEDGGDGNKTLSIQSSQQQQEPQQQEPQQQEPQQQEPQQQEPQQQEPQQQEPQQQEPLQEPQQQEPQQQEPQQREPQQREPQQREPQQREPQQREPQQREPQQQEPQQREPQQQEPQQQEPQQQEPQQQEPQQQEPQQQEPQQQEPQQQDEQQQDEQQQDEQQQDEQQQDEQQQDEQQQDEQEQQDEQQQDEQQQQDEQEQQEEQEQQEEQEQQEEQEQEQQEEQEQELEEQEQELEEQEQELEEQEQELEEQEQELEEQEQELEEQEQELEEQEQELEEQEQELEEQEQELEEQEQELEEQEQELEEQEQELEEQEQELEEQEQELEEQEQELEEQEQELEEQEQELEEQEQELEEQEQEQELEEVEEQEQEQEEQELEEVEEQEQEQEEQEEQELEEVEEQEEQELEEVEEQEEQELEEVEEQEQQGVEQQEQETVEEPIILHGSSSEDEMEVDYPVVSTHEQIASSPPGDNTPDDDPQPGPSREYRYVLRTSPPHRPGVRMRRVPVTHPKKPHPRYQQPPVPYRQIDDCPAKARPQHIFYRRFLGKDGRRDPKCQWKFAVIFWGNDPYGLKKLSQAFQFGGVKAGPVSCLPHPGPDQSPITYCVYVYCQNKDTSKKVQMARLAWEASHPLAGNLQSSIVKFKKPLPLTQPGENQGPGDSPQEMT

Experiment [8] is described as follows: compound autofluorescence in calcium buffer – biochemical, fluorescence, no RTF in test wells, artefact control for cardiac thin filament activator project, dose response (AID 504697).
Experiment [9] concerns the target Troponin, cardiac muscle (Homo sapiens, UniProt P19429+P45379+P63316). The experiment is described as follows: Fluorescence-based biochemical high throughput dose response assay for activators of the calcium sensitivity of cardiac Regulated Thin Filaments (RTF). [Related pubchem assays (depositor defined):AID493008, AID493018, AID504382, AID504383]. The format is protein-complex assay.

The target of experiment [10] is T4, Insulin-degrading enzyme (Homo sapiens, UniProt P14735).
T4 sequence (P14735 whole entry): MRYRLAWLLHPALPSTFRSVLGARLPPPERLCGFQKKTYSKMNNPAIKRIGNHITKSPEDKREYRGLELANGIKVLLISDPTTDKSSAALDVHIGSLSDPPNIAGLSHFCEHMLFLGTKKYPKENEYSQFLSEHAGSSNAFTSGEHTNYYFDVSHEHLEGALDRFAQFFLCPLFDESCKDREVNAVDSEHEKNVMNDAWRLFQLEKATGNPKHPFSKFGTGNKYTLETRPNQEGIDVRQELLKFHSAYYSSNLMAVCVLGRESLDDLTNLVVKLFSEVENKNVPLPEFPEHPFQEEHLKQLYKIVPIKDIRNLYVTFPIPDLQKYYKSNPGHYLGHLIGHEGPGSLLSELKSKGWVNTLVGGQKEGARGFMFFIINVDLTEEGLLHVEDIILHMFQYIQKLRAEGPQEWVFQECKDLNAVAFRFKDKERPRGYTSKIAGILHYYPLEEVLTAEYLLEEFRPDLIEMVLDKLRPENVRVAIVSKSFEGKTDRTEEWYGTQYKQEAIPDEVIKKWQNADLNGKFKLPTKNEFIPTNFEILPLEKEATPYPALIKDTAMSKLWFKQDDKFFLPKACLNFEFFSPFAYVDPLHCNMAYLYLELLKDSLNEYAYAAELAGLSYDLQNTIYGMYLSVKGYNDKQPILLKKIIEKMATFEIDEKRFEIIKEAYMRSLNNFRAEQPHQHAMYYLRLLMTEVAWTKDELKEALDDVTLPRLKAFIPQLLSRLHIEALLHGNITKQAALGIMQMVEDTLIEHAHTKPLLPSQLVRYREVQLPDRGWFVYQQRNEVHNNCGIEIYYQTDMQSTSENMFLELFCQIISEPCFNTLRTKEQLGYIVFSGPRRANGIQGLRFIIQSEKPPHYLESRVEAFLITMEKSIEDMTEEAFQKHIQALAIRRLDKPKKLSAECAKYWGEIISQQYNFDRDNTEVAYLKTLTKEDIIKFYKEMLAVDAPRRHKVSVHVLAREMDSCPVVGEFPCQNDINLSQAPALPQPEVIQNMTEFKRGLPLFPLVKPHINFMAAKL
The experiment is described as follows: recombinant IDE activation, cell-free – biochemical, fluorescence polarization, counter-screen for IDE activator project, dose response (AID 588681).

In experiment [11] the target is T4, Insulin-degrading enzyme. The experiment is described as follows: cellular IDE activation of Abeta substrate cleavage – fluorescence polarization, HEK cells, dose response (AID 588439). The format is functional, cell-based.
The test system of experiment [12] is HEK293. The experiment is described as follows: membrane integrity loss in HEK cells – cell-based, fluorescence, cytotoxicity control for IDE activator project, dose response (AID 588440).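 Also: cytotoxicity by LDH release measuring loss of membrane integrity.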 The format is functional. The settings on record: Homo sapiens.
The subject of experiment [13] is HEK293. Nature of the experiment: optical interference in Abeta FP readout, dose response, artefact control for IDE activator project, biochemical, fluorescence polarization (AID 588442). The settings on record: Homo sapiens. The format is functional, cell-based.
Experiment [14] addresses Protein-arginine deiminase type-4 (Homo sapiens, UniProt Q9UM07). The experiment is described as follows: IC50 against protein arginine deiminase 4 – biochemical, fluorescence readout, dose response (AID 492970).
In experiment [15] the target is T5, Bcl-2-related protein A1 (Mus musculus, UniProt Q07440).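 Also: confirmatory dose–response counterscreen on Bfl-1, used to check hits from a UBC13 polyubiquitin inhibitor campaign.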
T5 sequence (Q07440 whole entry): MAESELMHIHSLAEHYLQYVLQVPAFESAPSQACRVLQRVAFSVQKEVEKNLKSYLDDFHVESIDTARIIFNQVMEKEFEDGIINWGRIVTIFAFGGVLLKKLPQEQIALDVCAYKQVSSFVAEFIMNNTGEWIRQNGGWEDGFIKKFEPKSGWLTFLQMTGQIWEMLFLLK
The format is functional.

Experiment [16] concerns the target T6, Ubiquitin-conjugating enzyme E2 N (Homo sapiens, UniProt P61088).
T6 sequence (P61088 whole entry): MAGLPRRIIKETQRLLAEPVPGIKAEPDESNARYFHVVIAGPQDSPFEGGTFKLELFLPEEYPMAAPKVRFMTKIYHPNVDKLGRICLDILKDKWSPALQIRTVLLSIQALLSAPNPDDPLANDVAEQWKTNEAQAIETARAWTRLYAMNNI
The format is functional.

Experiment [17] has as its target T6, Ubiquitin-conjugating enzyme E2 N. The format is functional. This is another data set of the same source.

The structures appear in SMILES notation. The source made the active and inactive calls. Bounds are passed on as bounds.

Experimental findings from ChEMBL document CHEMBL1201862, “PubChem BioAssay data set” (2004) are described below.

In general, IC50 refers to the concentration needed to halve the response being measured. The AC50 is the concentration at which the activity in the assay is half-maximal.

Sequence of Protein-arginine deiminase type-4 (Q9UM07 whole entry): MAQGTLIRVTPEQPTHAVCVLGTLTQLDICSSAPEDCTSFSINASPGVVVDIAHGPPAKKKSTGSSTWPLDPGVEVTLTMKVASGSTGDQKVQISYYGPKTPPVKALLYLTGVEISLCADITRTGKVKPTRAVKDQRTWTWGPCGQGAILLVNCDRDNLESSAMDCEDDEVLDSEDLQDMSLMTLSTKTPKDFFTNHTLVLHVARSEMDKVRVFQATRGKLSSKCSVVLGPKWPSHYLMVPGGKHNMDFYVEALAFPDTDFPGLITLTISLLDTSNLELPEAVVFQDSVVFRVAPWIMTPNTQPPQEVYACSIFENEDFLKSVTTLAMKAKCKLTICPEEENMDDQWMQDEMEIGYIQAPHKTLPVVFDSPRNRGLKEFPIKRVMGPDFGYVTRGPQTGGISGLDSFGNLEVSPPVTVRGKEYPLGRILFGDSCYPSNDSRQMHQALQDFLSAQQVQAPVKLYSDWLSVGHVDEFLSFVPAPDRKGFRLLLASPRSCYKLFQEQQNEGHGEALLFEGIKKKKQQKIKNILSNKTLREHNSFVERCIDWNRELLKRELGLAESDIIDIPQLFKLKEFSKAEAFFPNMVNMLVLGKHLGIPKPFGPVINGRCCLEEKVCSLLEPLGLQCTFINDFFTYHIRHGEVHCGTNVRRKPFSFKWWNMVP
Sequence of Beta-lactamase (Salmonella choleraesuis (strain SC-B67), UniProt Q5J463) (Q5J463 whole entry): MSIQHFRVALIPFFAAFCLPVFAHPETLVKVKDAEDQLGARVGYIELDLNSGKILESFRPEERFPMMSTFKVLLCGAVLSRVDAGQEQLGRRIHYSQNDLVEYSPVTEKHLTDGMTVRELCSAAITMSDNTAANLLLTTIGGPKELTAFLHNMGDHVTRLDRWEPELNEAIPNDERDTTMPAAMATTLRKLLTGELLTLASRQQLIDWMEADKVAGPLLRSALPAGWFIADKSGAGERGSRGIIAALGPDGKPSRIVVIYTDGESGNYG
Sequence of Beta-lactamase (Pseudomonas aeruginosa, UniProt Q79MP6) (Q79MP6 whole entry): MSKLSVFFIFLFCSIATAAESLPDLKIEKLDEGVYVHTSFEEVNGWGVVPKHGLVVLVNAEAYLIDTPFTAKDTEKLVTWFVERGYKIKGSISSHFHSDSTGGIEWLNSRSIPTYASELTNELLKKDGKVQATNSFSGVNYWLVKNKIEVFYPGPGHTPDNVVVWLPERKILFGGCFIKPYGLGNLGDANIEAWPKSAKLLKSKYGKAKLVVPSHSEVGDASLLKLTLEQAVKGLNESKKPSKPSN

For the compound `c1ccc2c(CN3CCCCC3)csc2c1`, the IC50 in experiment [1], in experiment [2] and in experiment [3] was > 79.4 µM (inactive) each time. For the same compound, in experiment [4], the EC50 is 14.6 µM (active).

Regarding `CN(C)/C=C1\C=C2C(=O)c3ccccc3N2C1=O`, the figures for the IC50 in [5], in [6] and in experiment [12] were 1.02 µM (active), 372 nM (active) and > 89.2 µM (inactive), respectively. The AC50 in [7] was 51 nM (active). For the same compound, the EC50 is > 32.7 nM (active) in experiment [8]; > 10.9 nM (active) in experiment [9]; > 54.7 µM (inactive) in [10]; > 54.7 µM (inactive) in experiment [11]; > 54.7 µM (inactive) in [13].

Turning to `NNC(=O)/C(=C\c1ccco1)NC(=O)c1ccccc1`, the IC50 in experiment [14] was > 100 µM (inactive).

With `Cc1ccc(NC(=O)C2CCN(c3ncnc4c3nc3n4CCCCC3)CC2)cc1Cl`, the results for the IC50 in experiment [15], in experiment [16] and in experiment [17] were > 20 µM (inactive), 16 µM (active) and 6.92 µM (active), respectively.
